# From ChEMBL document CHEMBL4184161, “Novel all-hydrocarbon stapled p110α[E545K] peptides as blockers of the oncogenic p110α[E545K]-IRS1 interaction” (Bioorg Med Chem Lett, 2017)
# Active and inactive are the calls of the source. The calls are words filed in the database; no cut-off is given here. Numbered stars: 1 amine (or outer) side, 2 acyl side, 3 side chain; on linkers, the order of the positions; unused ones are H or OH. Bridge positions count the residues as written; N and C are the ends. Square brackets hold non-standard residues; d marks the D form. Peptide text beside a SMILES is read from it. X1 = C[C@](CCCCCC=[*:3])(N[*:1])C(=O)[*:2]; X2 = C[C@@](CCCCC=[*:3])(N[*:1])C(=O)[*:2]; R8 = C=CCCCCCC[C@@](C)(N)C(=O)O; S5 = C=CCCC[C@](C)(N)C(=O)O
# Tested on: not listed separately
# Assay: Proteolytic stability of the compound assessed as Streptomyces griseus pronase-mediated compound hydrolysis by RP-HPLC method
# Format: ADME
row,Stability,SMILES
1,Stable,CC[C@H](C)[C@H](NC(=O)[C@H](CCC(=O)O)NC(=O)[C@H](CO)NC(C)=O)C(=O)N[C@H](C(=O)N[C@@H](CCCCN)C(=O)N[C@@H](CCC(N)=O)C(=O)N[C@@H](CCC(=O)O)C(=O)N[C@@H](CCCCN)C(=O)N[C@@]1(C)CCC/C=C/CCC[C@@](C)(C(=O)N[C@@H](Cc2cnc[nH]2)C(=O)N[C@@H](CCCNC(=N)N)C(=O)N[C@@H](Cc2cnc[nH]2)C(=O)N[C@@H](Cc2ccc(O)cc2)C(=O)N[C@@H](CS)C(N)=O)NC(=O)[C@H](Cc2c[nH]c3ccccc23)NC(=O)[C@H](CC(C)C)NC(=O)[C@H](Cc2ccccc2)NC1=O)[C@@H](C)O (Ac-SEITKQEK[S5]FLW[S5]HRHYC-NH2; staple (E) 9-13)
2,Stable,CC[C@H](C)[C@H](NC(=O)[C@H](CCC(=O)O)NC(=O)[C@H](CO)NC(C)=O)C(=O)N[C@H](C(=O)N[C@@H](CCCCN)C(=O)N[C@@H](CCC(N)=O)C(=O)N[C@@H](CCC(=O)O)C(=O)N[C@@H](CCCCN)C(=O)N[C@]1(C)CCCCCC=CCCCC[C@@](C)(C(=O)N[C@@H](Cc2ccc(O)cc2)C(=O)N[C@@H](CS)C(N)=O)NC(=O)[C@H](CCCNC(=N)N)NC(=O)[C@H](Cc2cnc[nH]2)NC(=O)[C@H](CO)NC(=O)[C@H](Cc2c[nH]c3ccccc23)NC(=O)[C@H](CC(C)C)NC(=O)[C@H](Cc2ccccc2)NC1=O)[C@@H](C)O (Ac-SEITKQEK[X1]FLWSHR[X2]YC-NH2; staple 9-16)
3,Stable,CC[C@H](C)[C@H](NC(=O)[C@H](CCC(=O)O)NC(=O)[C@H](CO)NC(C)=O)C(=O)N[C@H](C(=O)N[C@@H](CCCCN)C(=O)N[C@]1(C)CCCCCCC=CCCC[C@@](C)(C(=O)N[C@@H](Cc2cnc[nH]2)C(=O)N[C@@H](CCCNC(=N)N)C(=O)N[C@@H](Cc2cnc[nH]2)C(=O)N[C@@H](Cc2ccc(O)cc2)C(=O)N[C@@H](CS)C(N)=O)NC(=O)[C@H](Cc2c[nH]c3ccccc23)NC(=O)[C@H](CC(C)C)NC(=O)[C@H](Cc2ccccc2)NC(=O)[C@H](CC(=O)O)NC(=O)[C@H](CCCCN)NC(=O)[C@H](CCC(=O)O)NC1=O)[C@@H](C)O (Ac-SEITK[R8]EKDFLW[S5]HRHYC-NH2; staple 6-13)
4,Stable,CC[C@H](C)[C@H](NC(=O)[C@H](CCC(=O)O)NC(C)=O)C(=O)N[C@H](C(=O)N[C@@H](CCCCN)C(=O)N[C@]1(C)CCCCCCC=CCCC[C@@](C)(C(=O)N[C@@H](Cc2cnc[nH]2)C(=O)N[C@@H](CCCNC(=N)N)C(N)=O)NC(=O)[C@H](Cc2c[nH]c3ccccc23)NC(=O)[C@H](CC(C)C)NC(=O)[C@H](Cc2ccccc2)NC(=O)[C@H](CC(=O)O)NC(=O)[C@H](CCCCN)NC(=O)[C@H](CCC(=O)O)NC1=O)[C@@H](C)O (stereo in doubt; form 2) [listing 1 of 2 here]

# Biological target: RAC-alpha serine/threonine-protein kinase (Homo sapiens) (UniProt P31749)
# Sequence (P31749 whole entry): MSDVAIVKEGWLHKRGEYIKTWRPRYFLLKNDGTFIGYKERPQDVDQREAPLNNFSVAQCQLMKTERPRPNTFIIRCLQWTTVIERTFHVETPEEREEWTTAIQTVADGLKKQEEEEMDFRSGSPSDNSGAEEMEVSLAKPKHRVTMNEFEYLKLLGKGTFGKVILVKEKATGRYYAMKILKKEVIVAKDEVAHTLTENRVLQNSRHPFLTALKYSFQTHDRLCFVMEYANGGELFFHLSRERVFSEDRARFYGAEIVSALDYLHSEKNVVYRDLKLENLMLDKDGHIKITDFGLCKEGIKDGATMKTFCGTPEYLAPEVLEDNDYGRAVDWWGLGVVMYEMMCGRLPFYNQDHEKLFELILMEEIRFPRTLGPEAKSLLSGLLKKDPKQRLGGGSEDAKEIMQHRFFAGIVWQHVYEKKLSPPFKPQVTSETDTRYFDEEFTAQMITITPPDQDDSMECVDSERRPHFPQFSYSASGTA
# Assay: Inhibition of p110alpha[E545K]-IRS1 interaction-initiated Akt phosphorylation at Ser473 residue in DLD1 human colon cancer cells at 50 uM by Western blot analysis
row,inhibition,SMILES
1,Active,CC[C@H](C)[C@H](NC(=O)[C@H](CCC(=O)O)NC(=O)[C@H](CO)NC(C)=O)C(=O)N[C@H](C(=O)N[C@@H](CCCCN)C(=O)N[C@@H](CCC(N)=O)C(=O)N[C@@H](CCC(=O)O)C(=O)N[C@@H](CCCCN)C(=O)N[C@@]1(C)CCC/C=C/CCC[C@@](C)(C(=O)N[C@@H](Cc2cnc[nH]2)C(=O)N[C@@H](CCCNC(=N)N)C(=O)N[C@@H](Cc2cnc[nH]2)C(=O)N[C@@H](Cc2ccc(O)cc2)C(=O)N[C@@H](CS)C(N)=O)NC(=O)[C@H](Cc2c[nH]c3ccccc23)NC(=O)[C@H](CC(C)C)NC(=O)[C@H](Cc2ccccc2)NC1=O)[C@@H](C)O (Ac-SEITKQEK[S5]FLW[S5]HRHYC-NH2; staple (E) 9-13)
2,Active,CC[C@H](C)[C@H](NC(=O)[C@H](CCC(=O)O)NC(C)=O)C(=O)N[C@H](C(=O)N[C@@H](CCCCN)C(=O)N[C@]1(C)CCCCCCC=CCCC[C@@](C)(C(=O)N[C@@H](Cc2cnc[nH]2)C(=O)N[C@@H](CCCNC(=N)N)C(N)=O)NC(=O)[C@H](Cc2c[nH]c3ccccc23)NC(=O)[C@H](CC(C)C)NC(=O)[C@H](Cc2ccccc2)NC(=O)[C@H](CC(=O)O)NC(=O)[C@H](CCCCN)NC(=O)[C@H](CCC(=O)O)NC1=O)[C@@H](C)O (stereo in doubt; form 1)
3,Active,CC[C@H](C)[C@H](NC(=O)[C@H](CCC(=O)O)NC(C)=O)C(=O)N[C@H](C(=O)N[C@@H](CCCCN)C(=O)N[C@]1(C)CCCCCCC=CCCC[C@@](C)(C(=O)N[C@@H](Cc2cnc[nH]2)C(=O)N[C@@H](CCCNC(=N)N)C(N)=O)NC(=O)[C@H](Cc2c[nH]c3ccccc23)NC(=O)[C@H](CC(C)C)NC(=O)[C@H](Cc2ccccc2)NC(=O)[C@H](CC(=O)O)NC(=O)[C@H](CCCCN)NC(=O)[C@H](CCC(=O)O)NC1=O)[C@@H](C)O (stereo in doubt; form 2) [listing 2 of 2 here]
